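Five compound concentrations were applied to cells in 96-well plates for 48 hours; endpoints were derived by simple linear interpolation of the resulting dose-response curve. Abbreviation: GI50, concentration required for 50% inhibition of growth. TGI is the concentration that stops growth completely.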
Experiments:
Test in all cases: inhibition of tumour cell growth, NCI panel, 48 h
NCI-H23 lung = test system: NCI-H23 lung
SN12C renal = test system: SN12C renal
U251 CNS = test system: U251 CNS
OVCAR-4 ovarian = test system: OVCAR-4 ovarian
MOLT-4 leukemia = test system: MOLT-4 leukemia
MCF7 breast = test system: MCF7 breast
NCI/ADR-RES ovarian = test system: NCI/ADR-RES ovarian
SR leukemia = test system: SR leukemia
DU-145 prostate = test system: DU-145 prostate
T-47D breast = test system: T-47D breast

SMILES: CCCCC[C@H]1CC=C2C(=O)C=C[C@@H]2CC=CCCCC(=O)O[C@@H](CCCCC)CC=C2C(=O)C=C[C@@H]2CC=CCCCC(=O)O[C@@H](CCCCC)CC=C2C(=O)C=C[C@@H]2CC=CCCCC(=O)O1
- GI50 (NCI-H23 lung): 0.3 µM
- TGI (NCI-H23 lung): 1.93 µM
- GI50 (SN12C renal): 0.277 µM
- TGI (SN12C renal): > 8.75 µM
- GI50 (U251 CNS): 0.158 µM
- TGI (U251 CNS): 0.315 µM
- GI50 (OVCAR-4 ovarian): 0.317 µM
- TGI (OVCAR-4 ovarian): > 8.75 µM
- GI50 (MOLT-4 leukemia): 0.266 µM
- TGI (MOLT-4 leukemia): > 8.75 µM
- GI50 (MCF7 breast): 0.286 µM
- TGI (MCF7 breast): 2.2 µM
- GI50 (NCI/ADR-RES ovarian): 4.24 µM
- TGI (NCI/ADR-RES ovarian): > 8.75 µM
- GI50 (SR leukemia): 0.229 µM
- TGI (SR leukemia): 1.34 µM
- GI50 (DU-145 prostate): 0.353 µM
- TGI (DU-145 prostate): 2.52 µM
- GI50 (T-47D breast): 0.195 µM
- TGI (T-47D breast): 0.713 µM

SMILES: O=C1NC(=O)[C@@]2(CC[C@@H](O)C2)c2ccncc21
- TGI (NCI-H23 lung): > 100 µM
- TGI (SN12C renal): > 100 µM
- TGI (U251 CNS): > 100 µM
- TGI (OVCAR-4 ovarian): > 100 µM
- TGI (MOLT-4 leukemia): > 100 µM
- TGI (MCF7 breast): > 100 µM
- TGI (NCI/ADR-RES ovarian): > 100 µM
- TGI (SR leukemia): > 100 µM
- TGI (DU-145 prostate): > 100 µM
- TGI (T-47D breast): > 100 µM

SMILES: CCCCCCCN(CCCCCCC)C(=N)c1ccnc2ccccc12
- GI50 (NCI-H23 lung): 1.54 µM
- TGI (NCI-H23 lung): 3.08 µM
- GI50 (SN12C renal): 1.67 µM
- TGI (SN12C renal): 3.49 µM
- GI50 (U251 CNS): 1.66 µM
- TGI (U251 CNS): 3.11 µM
- GI50 (OVCAR-4 ovarian): 1.35 µM
- TGI (OVCAR-4 ovarian): 3.05 µM
- GI50 (MOLT-4 leukemia): 1.7 µM
- TGI (MOLT-4 leukemia): 4.4 µM
- GI50 (MCF7 breast): 1.71 µM
- TGI (MCF7 breast): 3.32 µM
- GI50 (NCI/ADR-RES ovarian): 1.54 µM
- TGI (NCI/ADR-RES ovarian): 2.96 µM
- GI50 (SR leukemia): 1.01 µM
- TGI (SR leukemia): 2.96 µM
- GI50 (DU-145 prostate): 1.6 µM
- TGI (DU-145 prostate): 3.04 µM
- GI50 (T-47D breast): 1.78 µM
- TGI (T-47D breast): 4.3 µM

SMILES: O=C(O)C1CCN(Cc2oc(CO)cc(=O)c2O)C1 (stereo not given)
- TGI (NCI-H23 lung): > 100 µM
- TGI (SN12C renal): > 100 µM
- TGI (U251 CNS): > 100 µM
- TGI (OVCAR-4 ovarian): > 100 µM
- TGI (MOLT-4 leukemia): > 100 µM
- TGI (MCF7 breast): > 100 µM
- TGI (NCI/ADR-RES ovarian): > 100 µM
- TGI (SR leukemia): > 100 µM
- TGI (DU-145 prostate): > 100 µM
- TGI (T-47D breast): > 100 µM

SMILES: C[C@]12CC[C@@H]3c4ccc(O)cc4CC[C@H]3[C@@H]1CC[C@@H]2NS(=O)(=O)c1cccc(Cl)c1
- GI50 (NCI-H23 lung): 2.72 µM
- TGI (NCI-H23 lung): 10.8 µM
- GI50 (SN12C renal): 1.8 µM
- TGI (SN12C renal): 3.8 µM
- GI50 (U251 CNS): 2.26 µM
- TGI (U251 CNS): 5.48 µM
- GI50 (OVCAR-4 ovarian): 2.2 µM
- TGI (OVCAR-4 ovarian): 10.5 µM
- GI50 (MOLT-4 leukemia): 2.14 µM
- TGI (MOLT-4 leukemia): 8.97 µM
- GI50 (MCF7 breast): 2.92 µM
- TGI (MCF7 breast): 7.46 µM
- GI50 (NCI/ADR-RES ovarian): 2.39 µM
- TGI (NCI/ADR-RES ovarian): 8.57 µM
- GI50 (SR leukemia): 2.15 µM
- TGI (SR leukemia): 6.6 µM
- GI50 (DU-145 prostate): 4.17 µM
- TGI (DU-145 prostate): 14.9 µM
- GI50 (T-47D breast): 3.49 µM
- TGI (T-47D breast): 11.3 µM

SMILES: Oc1[nH]c(N=C2N=c3ccccc3=N2)c2ccccc12
- GI50 (NCI-H23 lung): 7.29 µM
- TGI (NCI-H23 lung): 52.6 µM
- GI50 (SN12C renal): 12.8 µM
- TGI (SN12C renal): 36.7 µM
- GI50 (U251 CNS): 3.4 µM
- TGI (U251 CNS): 42.3 µM
- GI50 (OVCAR-4 ovarian): 6.84 µM
- TGI (OVCAR-4 ovarian): 24 µM
- GI50 (MOLT-4 leukemia): 3.28 µM
- TGI (MOLT-4 leukemia): 29.5 µM
- GI50 (MCF7 breast): 2.65 µM
- TGI (MCF7 breast): 23.7 µM
- GI50 (NCI/ADR-RES ovarian): 3.87 µM
- TGI (NCI/ADR-RES ovarian): 30.1 µM
- GI50 (SR leukemia): 5.46 µM
- TGI (SR leukemia): 41.6 µM
- GI50 (DU-145 prostate): 10.3 µM
- TGI (DU-145 prostate): 22.6 µM
- GI50 (T-47D breast): 8.27 µM
- TGI (T-47D breast): 85.8 µM

SMILES: CCn1c(-c2c(Cl)cc(O)cc2Cl)cc2c(Cl)cc(O)cc21
- TGI (NCI-H23 lung): 39 µM
- TGI (SN12C renal): > 100 µM
- TGI (U251 CNS): 17 µM
- TGI (OVCAR-4 ovarian): 21.7 µM
- TGI (MOLT-4 leukemia): > 100 µM
- TGI (MCF7 breast): 25.2 µM
- TGI (NCI/ADR-RES ovarian): > 100 µM
- TGI (SR leukemia): > 100 µM
- TGI (DU-145 prostate): > 100 µM
- TGI (T-47D breast): 27.4 µM

— PubChem BioAssay (NCI)
